Reference: publication PMC5218480 (PLoS ONE, 2017)

System: MV-4-11 cells
Assay: Gene expression microarray analysis (Affymetrix PrimeView) and GSEA
Assay type: cell-based, human
Design: RFU PODN (11730768_x_at) / Fold change /veh PODN (11730768_x_at) / RFU LINC00158 (11744669_a_at) / Fold change /veh LINC00158 (11744669_a_at) / RFU DUSP10 (11751237_a_at) / Fold change /veh DUSP10 (11751237_a_at) / RFU ID3 (11757404_x_at) / Fold change /veh ID3 (11757404_x_at) / RFU PLEKHG5 (11737974_s_at) / Fold change /veh PLEKHG5 (11737974_s_at) / RFU LRRC4B (11730491_at) / Fold change /veh LRRC4B (11730491_at) / RFU GIMAP4 (11747438_a_at) / Fold change /veh GIMAP4 (11747438_a_at) / RFU KRT8 (11758183_x_at) / Fold change /veh KRT8 (11758183_x_at) / RFU CNN1 (11734310_a_at) / Fold change /veh CNN1 (11734310_a_at) / RFU VPS37D (11726825_at) / Fold change /veh VPS37D (11726825_at) / RFU C10orf10 (11716522_x_at) / Fold change /veh C10orf10 (11716522_x_at) / RFU KIR2DL2 /// KIR2DL4 /// KIR2DL5A /// KIR2DL5B /// KIR2DS1 /// KIR2DS2 /// KIR2DS3 /// KIR2DS4 /// KIR3DL3 /// KIR3DL3 /// KIR3DS1 (11738374_at) / Fold change /veh KIR2DL2 /// KIR2DL4 /// KIR2DL5A /// KIR2DL5B /// KIR2DS1 /// KIR2DS2 /// KIR2DS3 /// KIR2DS4 /// KIR3DL3 /// KIR3DL3 /// KIR3DS1 (11738374_at) / RFU C1QL1 (11718748_at) / Fold change /veh C1QL1 (11718748_at) / RFU TMPRSS4 (11747572_a_at) / Fold change /veh TMPRSS4 (11747572_a_at) / RFU HAMP (11756126_x_at) / Fold change /veh HAMP (11756126_x_at) / RFU RNFT2 (11725882_a_at) / Fold change /veh RNFT2 (11725882_a_at) / RFU NR4A2 (11747474_a_at) / Fold change /veh NR4A2 (11747474_a_at) / RFU ABCC12 (11746883_a_at) / Fold change /veh ABCC12 (11746883_a_at) / RFU TMEM136 (11760407_x_at) / Fold change /veh TMEM136 (11760407_x_at) / RFU CLDN22 /// WWC2 (11732394_at) / Fold change /veh CLDN22 /// WWC2 (11732394_at) / RFU HLA-DPB1 (11760878_x_at) / Fold change /veh HLA-DPB1 (11760878_x_at) / RFU SPINT1 (11716480_a_at) / Fold change /veh SPINT1 (11716480_a_at) / RFU GAP43 (11754022_s_at) / Fold change /veh GAP43 (11754022_s_at) / RFU A4GNT (11735810_at) / Fold change /veh A4GNT (11735810_at) / RFU PRB3 (11715151_x_at) / Fold change /veh PRB3 (11715151_x_at) / RFU TUBB4B (11761932_at) / Fold change /veh TUBB4B (11761932_at) / RFU CAPN14 (11732068_a_at) / Fold change /veh CAPN14 (11732068_a_at) / RFU TMCC2 (11721928_a_at) / Fold change /veh TMCC2 (11721928_a_at) / RFU IRGQ (11745062_a_at) / Fold change /veh IRGQ (11745062_a_at) / RFU FAM174B (11720279_a_at) / Fold change /veh FAM174B (11720279_a_at) / RFU TMPRSS4 (11748680_a_at) / Fold change /veh TMPRSS4 (11748680_a_at) / RFU FAM212B (11763350_a_at) / Fold change /veh FAM212B (11763350_a_at) / RFU PLEKHG5 (11743358_a_at) / Fold change /veh PLEKHG5 (11743358_a_at) / RFU ZSCAN30 (11745921_a_at) / Fold change /veh ZSCAN30 (11745921_a_at) / RFU CMKLR1 (11741424_a_at) / Fold change /veh CMKLR1 (11741424_a_at) / RFU LOC101060620 /// MAPK8IP1 (11723275_at) / Fold change /veh LOC101060620 /// MAPK8IP1 (11723275_at) / RFU SPTSSB (11747773_x_at) / Fold change /veh SPTSSB (11747773_x_at) / RFU PRSS12 (11739890_at) / Fold change /veh PRSS12 (11739890_at) / RFU BIN1 (11741810_x_at) / Fold change /veh BIN1 (11741810_x_at) / RFU WNT11 (11732464_a_at) / Fold change /veh WNT11 (11732464_a_at) / RFU C10orf10 (11716521_a_at) / Fold change /veh C10orf10 (11716521_a_at) / RFU C5orf56 (11738089_at) / Fold change /veh C5orf56 (11738089_at) / RFU CYB561 (11721691_x_at) / Fold change /veh CYB561 (11721691_x_at) / RFU ANKRD19P (11752326_a_at) / Fold change /veh ANKRD19P (11752326_a_at) / RFU OR2T12 /// OR2T33 /// OR2T8 (11738714_s_at) / Fold change /veh OR2T12 /// OR2T33 /// OR2T8 (11738714_s_at) / RFU VCAN (11748164_a_at) / Fold change /veh VCAN (11748164_a_at) / RFU JSRP1 (11732532_at) / Fold change /veh JSRP1 (11732532_at) / RFU KRTAP10-11 (11738290_x_at) / Fold change /veh KRTAP10-11 (11738290_x_at) / RFU MYO3A (11730013_a_at) / Fold change /veh MYO3A (11730013_a_at) / RFU EBF3 (11725865_a_at) / Fold change /veh EBF3 (11725865_a_at) / RFU CAMK2N1 (11719241_x_at) / Fold change /veh CAMK2N1 (11719241_x_at) / RFU C5orf56 (11738088_a_at) / Fold change /veh C5orf56 (11738088_a_at) / RFU OLFML3 (11715873_a_at) / Fold change /veh OLFML3 (11715873_a_at) / RFU LOC100653217 /// NTM (11731650_a_at) / Fold change /veh LOC100653217 /// NTM (11731650_a_at) / RFU MAPK11 (11762145_a_at) / Fold change /veh MAPK11 (11762145_a_at) / RFU FIZ1 (11724087_x_at) / Fold change /veh FIZ1 (11724087_x_at) / RFU OASL (11726364_x_at) / Fold change /veh OASL (11726364_x_at) / RFU SOX15 (11748057_x_at) / Fold change /veh SOX15 (11748057_x_at) / RFU CD79A (11719716_a_at) / Fold change /veh CD79A (11719716_a_at) / RFU HIST1H1D (11736915_at) / Fold change /veh HIST1H1D (11736915_at) / RFU CASKIN2 (11723855_a_at) / Fold change /veh CASKIN2 (11723855_a_at) / RFU LOC730098 (11760151_x_at) / Fold change /veh LOC730098 (11760151_x_at) / RFU OR4N2 (11742367_at) / Fold change /veh OR4N2 (11742367_at) / RFU PRRT2 (11749266_a_at) / Fold change /veh PRRT2 (11749266_a_at) / RFU SNX32 (11753110_a_at) / Fold change /veh SNX32 (11753110_a_at) / RFU CDHR5 (11726645_a_at) / Fold change /veh CDHR5 (11726645_a_at) / RFU RCAN1 (11760418_a_at) / Fold change /veh RCAN1 (11760418_a_at) / RFU FAM167A (11723789_a_at) / Fold change /veh FAM167A (11723789_a_at) / RFU FAM26E (11764081_at) / Fold change /veh FAM26E (11764081_at) / RFU ISYNA1 (11749810_s_at) / Fold change /veh ISYNA1 (11749810_s_at) / RFU ACY1 (11761880_at) / Fold change /veh ACY1 (11761880_at) / RFU 11764098_at / Fold change /veh 11764098_at / RFU SAMD14 (11745864_x_at) / Fold change /veh SAMD14 (11745864_x_at) / RFU NPB (11741838_a_at) / Fold change /veh NPB (11741838_a_at) / RFU TMPRSS6 (11731388_a_at) / Fold change /veh TMPRSS6 (11731388_a_at) / RFU KRTAP10-2 (11738614_at) / Fold change /veh KRTAP10-2 (11738614_at) / RFU ARHGAP8 /// PRR5-ARHGAP8 (11727945_x_at) / Fold change /veh ARHGAP8 /// PRR5-ARHGAP8 (11727945_x_at) / RFU KRTAP5-7 /// NADSYN1 (11734609_at) / Fold change /veh KRTAP5-7 /// NADSYN1 (11734609_at) / RFU RASL12 (11751679_a_at) / Fold change /veh RASL12 (11751679_a_at) / RFU CDKN2B (11736163_a_at) / Fold change /veh CDKN2B (11736163_a_at) / RFU PRF1 (11729649_at) / Fold change /veh PRF1 (11729649_at) / RFU, ZNF638 /// ZNF638-IT1 / Fold change vs veh, ZNF638 /// ZNF638-IT1 / RFU, PANK3 / Fold change vs veh, PANK3 / RFU, SH3YL1 / Fold change vs veh, SH3YL1 / RFU, ZEB2 / Fold change vs veh, ZEB2 / RFU, NRIP1 / Fold change vs veh, NRIP1 / RFU, PTTG1IP / Fold change vs veh, PTTG1IP / RFU, CAPN2 / Fold change vs veh, CAPN2 / RFU, MED14 / Fold change vs veh, MED14 / RFU, SNORA58 / Fold change vs veh, SNORA58 / RFU, C1orf63 / Fold change vs veh, C1orf63 / RFU, LRRFIP1 / Fold change vs veh, LRRFIP1 / RFU, NDUFAF7 / Fold change vs veh, NDUFAF7 / RFU, SLC12A2 / Fold change vs veh, SLC12A2 / RFU, IBTK / Fold change vs veh, IBTK / RFU, ESF1 / Fold change vs veh, ESF1 / Fold change vs veh, TMEM50B / RFU, TAOK1 / Fold change vs veh, TAOK1 / RFU, ACBD3 / Fold change vs veh, ACBD3 / RFU, TMA16 / Fold change vs veh, TMA16 / RFU, RWDD3 / Fold change vs veh, RWDD3 / RFU, BCAT1 / Fold change vs veh, BCAT1 / RFU, EDEM3 / Fold change vs veh, EDEM3 / RFU, TMEM33 / Fold change vs veh, TMEM33 / RFU, WDR75 / Fold change vs veh, WDR75 / RFU, AHCTF1 / Fold change vs veh, AHCTF1 / RFU, TFRC / Fold change vs veh, TFRC / RFU, ZDHHC17 / Fold change vs veh, ZDHHC17 / RFU, NOM1 / Fold change vs veh, NOM1 / RFU, ARL8B / Fold change vs veh, ARL8B / RFU, ZBTB11 / Fold change vs veh, ZBTB11 / RFU, TAMM41 / Fold change vs veh, TAMM41 / RFU, KIAA1704 /// LOC100996395 / Fold change vs veh, KIAA1704 /// LOC100996395 / RFU, ING1 / Fold change vs veh, ING1 / RFU, TRMT61B / Fold change vs veh, TRMT61B / RFU, FUBP3 / Fold change vs veh, FUBP3 / RFU, TP53 / Fold change vs veh, TP53 / RFU, TNKS2 / Fold change vs veh, TNKS2 / RFU, ZFP14 / Fold change vs veh, ZFP14 / RFU, ACTR2 / Fold change vs veh, ACTR2 / RFU, PPP3R1 / Fold change vs veh, PPP3R1 / RFU, PIK3R1 / Fold change vs veh, PIK3R1 / RFU, HNRNPA1 / Fold change vs veh, HNRNPA1 / RFU, RNF170 / Fold change vs veh, RNF170 / RFU, ZNF28 / Fold change vs veh, ZNF28 / RFU, RNGTT / Fold change vs veh, RNGTT / RFU, OGT / Fold change vs veh, OGT / RFU, BRD1 / Fold change vs veh, BRD1 / RFU, MARS / Fold change vs veh, MARS / RFU, ZNF655 / Fold change vs veh, ZNF655 / RFU, FAHD1 / Fold change vs veh, FAHD1 / RFU, BDP1 / Fold change vs veh, BDP1 / RFU, LRRCC1 / Fold change vs veh, LRRCC1 / RFU, ARID1A / Fold change vs veh, ARID1A / RFU, ZNF146 / Fold change vs veh, ZNF146 / RFU, ZNF330 / Fold change vs veh, ZNF330 / RFU, GPN3 / Fold change vs veh, GPN3 / RFU, C9orf123 / Fold change vs veh, C9orf123 / RFU, N4BP2L2 / Fold change vs veh, N4BP2L2 / RFU, ARFIP1 / Fold change vs veh, ARFIP1 / RFU, FAM179B / Fold change vs veh, FAM179B / RFU, BCL10 / Fold change vs veh, BCL10 / RFU, UHRF1BP1L / Fold change vs veh, UHRF1BP1L / RFU, BET1 / Fold change vs veh, BET1 / RFU, CNOT2 / Fold change vs veh, CNOT2 / RFU, ZNF268 / Fold change vs veh, ZNF268 / Fold change vs veh, ZNF507 / RFU, DGCR2 / Fold change vs veh, DGCR2 / RFU, WDSUB1 / Fold change vs veh, WDSUB1 / Fold change vs veh, HSP90B1 /// MIR3652 / RFU, ADSS / Fold change vs veh, ADSS / RFU, GK / Fold change vs veh, GK / RFU, ZNF148 / Fold change vs veh, ZNF148 / RFU, TAF9 / Fold change vs veh, TAF9 / RFU, SLC1A5 / Fold change vs veh, SLC1A5 / RFU, SLMO2 / Fold change vs veh, SLMO2 / RFU, ABCC4 / Fold change vs veh, ABCC4 / RFU, LOC101060439 /// RAP1B / Fold change vs veh, LOC101060439 /// RAP1B / RFU, RFX7 / Fold change vs veh, RFX7 / RFU, GTPBP10 / Fold change vs veh, GTPBP10 / RFU, CNEP1R1 / Fold change vs veh, CNEP1R1 / RFU, BIVM-ERCC5 /// ERCC5 / Fold change vs veh, BIVM-ERCC5 /// ERCC5 / RFU, ILF3 / Fold change vs veh, ILF3 / RFU 11762660_at / Fold change /veh 11762660_at / RFU VCAN (11757783_s_at) / Fold change /veh VCAN (11757783_s_at) / RFU DDX43 (11728927_at) / Fold change /veh DDX43 (11728927_at) / RFU KRT8 (11758188_x_at) / Fold change /veh KRT8 (11758188_x_at) / RFU NKD1 (11759106_at) / Fold change /veh NKD1 (11759106_at) / RFU SRD5A1 (11742802_a_at) / Fold change /veh SRD5A1 (11742802_a_at) / RFU TPSAB1 /// TPSB2 (11721975_s_at) / Fold change /veh TPSAB1 /// TPSB2 (11721975_s_at) / RFU GSTM3 (11746129_a_at) / Fold change /veh GSTM3 (11746129_a_at) / RFU IL23R (11737362_x_at) / Fold change /veh IL23R (11737362_x_at) / RFU TMEM51 (11727254_a_at) / Fold change /veh TMEM51 (11727254_a_at) / RFU PIWIL2 (11732686_x_at) / Fold change /veh PIWIL2 (11732686_x_at) / RFU ORM1 (11744905_x_at) / Fold change /veh ORM1 (11744905_x_at) / RFU CCDC152 (11743942_at) / Fold change /veh CCDC152 (11743942_at) / RFU ECM1 (11717891_a_at) / Fold change /veh ECM1 (11717891_a_at) / RFU IL23R (11748794_a_at) / Fold change /veh IL23R (11748794_a_at) / RFU TNFAIP8L3 (11732012_x_at) / Fold change /veh TNFAIP8L3 (11732012_x_at) / RFU MBOAT4 (11741988_at) / Fold change /veh MBOAT4 (11741988_at) / RFU 11764193_at / Fold change /veh 11764193_at / RFU TMEM53 (11763286_at) / Fold change /veh TMEM53 (11763286_at) / RFU MAGEB2 (11727129_at) / Fold change /veh MAGEB2 (11727129_at) / RFU TMEM200A (11744735_a_at) / Fold change /veh TMEM200A (11744735_a_at) / RFU CCDC152 (11751479_a_at) / Fold change /veh CCDC152 (11751479_a_at) / RFU FAM211A (11726209_a_at) / Fold change /veh FAM211A (11726209_a_at) / RFU RGS16 (11746705_a_at) / Fold change /veh RGS16 (11746705_a_at) / RFU VCAN (11755009_s_at) / Fold change /veh VCAN (11755009_s_at) / RFU RHOB (11743442_s_at) / Fold change /veh RHOB (11743442_s_at) / RFU RGS16 (11720943_a_at) / Fold change /veh RGS16 (11720943_a_at) / RFU RGS16 (11720944_at) / Fold change /veh RGS16 (11720944_at) / RFU, VPS4B / Fold change vs veh, VPS4B / RFU, CREB1 / Fold change vs veh, CREB1 / RFU, DNAJC13 / Fold change vs veh, DNAJC13 / RFU, GNAQ / Fold change vs veh, GNAQ / RFU, CDK5R1 / Fold change vs veh, CDK5R1 / RFU, ZRANB3 / Fold change vs veh, ZRANB3 / RFU, CUL4A / Fold change vs veh, CUL4A / RFU, CCNY / Fold change vs veh, CCNY / RFU, UFL1 / Fold change vs veh, UFL1 / RFU, COG3 / Fold change vs veh, COG3 / RFU, DIAPH2 / Fold change vs veh, DIAPH2 / RFU, SKA2 / Fold change vs veh, SKA2 / RFU, AFF3 / Fold change vs veh, AFF3 / RFU, LMF1 / Fold change vs veh, LMF1 / RFU, IPO11 / Fold change vs veh, IPO11 / RFU, DFFB / Fold change vs veh, DFFB / RFU, FOXP1 / Fold change vs veh, FOXP1 / RFU, CARD8 / Fold change vs veh, CARD8 / RFU, STRN3 / Fold change vs veh, STRN3 / RFU, ADK / Fold change vs veh, ADK / RFU, RASSF2 / Fold change vs veh, RASSF2 / RFU, WIPF1 / Fold change vs veh, WIPF1 / RFU, LARP1B / Fold change vs veh, LARP1B / RFU, RASA1 / Fold change vs veh, RASA1 / RFU, RB1 / Fold change vs veh, RB1 / RFU, PPFIA1 / Fold change vs veh, PPFIA1 / RFU, MAT2A / Fold change vs veh, MAT2A / RFU, CCT5 / Fold change vs veh, CCT5 / RFU, WDR92 / Fold change vs veh, WDR92 / RFU, CUX1 / Fold change vs veh, CUX1 / RFU, TTC7A / Fold change vs veh, TTC7A / RFU, TMEM135 / Fold change vs veh, TMEM135 / RFU, DEPTOR / Fold change vs veh, DEPTOR / RFU, CPM / Fold change vs veh, CPM / RFU, DNAJB6 / Fold change vs veh, DNAJB6 / RFU, CACNA2D3 / Fold change vs veh, CACNA2D3 / RFU, DTX4 / Fold change vs veh, DTX4 / RFU, TFCP2 / Fold change vs veh, TFCP2 / RFU, GMCL1 /// GMCL1P1 / Fold change vs veh, GMCL1 /// GMCL1P1 / RFU, AEBP2 / Fold change vs veh, AEBP2 / RFU, SNHG1 /// SNORD22 /// SNORD25 /// SNORD26 /// SNORD27 /// SNORD28 /// SNORD29 /// SNORD31 / Fold change vs veh, SNHG1 /// SNORD22 /// SNORD25 /// SNORD26 /// SNORD27 /// SNORD28 /// SNORD29 /// SNORD31 / Fold change (Aza/veh), C12orf56 (ProbeSet 11735607_a_at) / Fold change (ACY-1035/veh), C12orf56 (ProbeSet 11735607_a_at) / Fold change (Aza/veh), FGFR1OP (ProbeSet 11751329_s_at) / Fold change (ACY-1035/veh), FGFR1OP (ProbeSet 11751329_s_at) / Fold change (Aza/veh), VPS36 (ProbeSet 11739960_a_at) / Fold change (ACY-1035/veh), VPS36 (ProbeSet 11739960_a_at) / RFU SYPL1 (11715823_x_at) / Fold change /veh SYPL1 (11715823_x_at) / RFU IGFBP7 (11715501_s_at) / Fold change /veh IGFBP7 (11715501_s_at) / RFU REEP3 (11722064_at) / Fold change /veh REEP3 (11722064_at) / RFU IGLL1 (11728026_x_at) / Fold change /veh IGLL1 (11728026_x_at): dose or concentration left out as unconfirmed
Settings: MV-4-11 cells, 48 hours

## Nc1ncn([C@@H]2O[C@H](CO)[C@@H](O)[C@H]2O)c(=O)n1 [azacitidine]
  RFU GIMAP4 (11747438_a_at): 6.50 RFU
